The results in this text go back to patent US20030228675A1, “ATM related kinase ATX, nucleic acids encoding same and methods of use” (priority 2002, published 2003).

Data set [1] concerns U2OS cells. Description: Clonogenic survival assay of oligonucleotide-transfected cells. The data set is classed as cell-based, human. To be noted: non-irradiated, 10 days in culture. As for the experimental part:
To address concerns related to potential non-specific effects of ATXKI expression on cellular functions, an antisense oligonucleotide-based approach to reduce the level of ATX expression in U2OS cells was developed. The cells were mock transfected, or transfected with sense (S) or antisense (AS) oligonucleotides, and then treated for 24 h with various genotoxic agents. The cells were then trypsinized and replated, and clonogenic survival was analyzed after 10 days in culture. The results obtained with AS-treated cells were strikingly similar to those obtained with the ATXKI-expressing cells (FIGS. 2A-C). While transfection of U2OS cells with the S oligonucleotide reduced the basal level of colony outgrowth by 25%, treatment with the AS oligonucleotide decreased basal clonogenic activity by 75% (FIG. 2C, right panel). […] The reduction in ATX protein caused by AS treatment ranged from 50-90% in over 10 independent trials.
To prepare recombinant HA-tagged ATX and ATM proteins, HEK 293T cells were plated onto 60-mm dishes (9×10^5 cells per dish), and were transfected with 5 μg pcDNA3.1 (empty vector), HA-ATXWT, HA-ATXKI, or HA-ATMWT plasmid DNAS. Transfections were performed with the Fugene 6 transfection reagent (Roche), according to the manufacturer's instructions. For NMD assays (see Example 9, below), U2OS cells were seeded onto 100 mm dishes (1×10^6 cells per dish). […]
U2OS cells were seeded into 60 mm dishes (1×10^5 cells per dish) in complete medium. […] To quantitate the outgrowth of drug-resistant cells, the Coomassie Blue-bound protein was solubilized at 37° C. with 0.1 M NaOH, and the soluble material was analyzed by absorbance spectroscopy at a wavelength of 590 nm. […] Drug-resistant colonies were stained with Coomassie Blue after 10 days in culture, and the samples were analyzed with Image Pro Plus software to quantitate cell density. […]

For data set [2], the system named is U2OS cells. Description: Cell-cycle distribution by flow cytometry. The format is cell-based, human. To be noted: 24 h post-irradiation. The procedure:
Since p53 plays a central role in activation of the G1 checkpoint, and influences S, G2, and M checkpoints as well (Giaccia and Kastan, Genes & Development 12:2973-2983 (1998); Ko and Prives, supra, 1996), a functional deficiency of ATX might alter the cell-cycle arrest responses to IR and other genotoxic agents. To test this possibility, U2OS cells were pre-treated with S or AS oligonucleotides, exposed to IR, and cell-cycle distributions at 24 h post-irradiation were determined.
The G2 checkpoint inhibitor was added to the culture medium at 8 h prior to harvest for determination of cell-cycle distributions (FIG. 3E, left panel), and immunoblotting for ATX expression (right panel).
In general terms: In flow cytometry, cells or beads pass a laser one at a time.

The test system of the next data set is p53. Description: Stress-induced p53 Ser-15 phosphorylation and p53 accumulation by immunoblotting. The note with it: U2OS treated with the drug. The data set is classed as cell-based, human. The procedure:
To prepare recombinant HA-tagged ATX and ATM proteins, HEK 293T cells were plated onto 60-mm dishes (9×10^5 cells per dish), and were transfected with 5 μg pcDNA3.1 (empty vector), HA-ATXWT, HA-ATXKI, or HA-ATMWT plasmid DNAS. Transfections were performed with the Fugene 6 transfection reagent (Roche), according to the manufacturer's instructions. For NMD assays (see Example 9, below), U2OS cells were seeded onto 100 mm dishes (1×10^6 cells per dish). After 20 h, cells were transfected with 1.5 μg of pmCMV-Gl test plasmid, either Norm or 39Ter (Ishigaki et al., 2001); 1.5 μg of phCMV-MUP reference plasmid (Ishigaki et al., Cell 106:607-617 (2001)); and 7 μg of empty plasmid (pcDNA 3.1), plasmids encoding HA-ATMWT, HA-ATMKI, HA-ATXWT or HA-ATXKI. For antisense transfection experiments, U2OS cells were seeded onto 60 mm dishes (1×10^5 cells per dish) in complete medium supplemented with penicillin/streptomycin. After 30 h, cells were either mock transfected or transfected with sense (S) or antisense (AS) phosphorothioate oligonucleotides (Genset Oligos, La Jolla, Calif.). The S oligonucleotide spans ATX nucleotides 210-229 (5′-[…]-3′), and the AS oligonucleotide is complementary to this sequence (5′-[…]-3′). The cells were transfected with oligonucleotides at final concentrations of 8 μg/ml, with Fugene 6:DNA ratio of 1.6:1. Forty-eight hours after transfection, dishes were exposed to IR, UV-B, or 5-FU, and then harvested for immunoblotting, cell-cycle distribution, or cell survival assays. To examine ATX protein levels in oligonucleotide-treated cells, whole cell extracts were resolved by SDS-PAGE and immunoblotted with α-ATX Ab-1. When oligonucleotide-transfected cells were used for NMD assays, U2OS cells were seeded in culture dishes as described above. The cells were transfected using the Fugene reagent, with 1.5 μg of pmCMV-Gl test plasmid, 0.7 μg of phCMV-MUP reference plasmid, and 24 μg of S or AS oligonucleotide.
A major mediator of stress-induced signaling in mammalian cells is the tumor suppressor protein, p53 (Ko and Prives, Genes and Development 10:1054-1072, (1996); Ryan et al., Curr. Opin. Cell Biol. 13:332-337 (2001)). ATX phosphorylates p53 on Ser-15 (FIG. 1C), a site implicated in the regulation of p53 stability and transcriptional activity (Dumaz and Meek, Curr. Opin. Cell Biol. 13:225-231 (1999); Zhang and Xiong, Science 292:1910-1915 (2001)). Therefore, the possibility that these two proteins are functionally linked during cellular stress responses was investigated. U2OS cells were transiently transfected with a HA-ATXWT or HA-ATXKI expression plasmid, together with a GFP-encoding plasmid to allow for FACS-based enrichment of the transfected cells. The GFP+ cells were then examined for IR-induced stabilization of p53, as well as for specific phosphorylation of this protein on Ser-15. […] In contrast, overexpression of ATXWT enhanced both of these responses in cells exposed to IR.
The recognition of UV light-induced DNA damage occurs primarily during S phase, when pyrimidine dimers and other bulky lesions interfere with replication fork progression (Friedberg, DNA Repair and Mutagenesis (Washington, D.C., ASM Press) (1995); Lindahl and Wood, Cell 103:1121-1131 (1999)).
In order to further define the potential linkage between DNA replicational stress and ATX, the response of AS-treated cells to 5-fluorouracil (5-FU), an S-phase specific cytotoxic agent was examined (Danenberg et al., Seminars in Oncology 26:621-631 (1999); Grem, Investigational New Drugs 18:299-313 (2000)).
Changes in phosphorylation at Ser-15 are typically accompanied by alterations in the expression of the p53 protein, which complicates the interpretation of results obtained by immunoblotting of whole cell extracts with phospho-Ser-15-specific antibodies. […]
A general note: A western blot detects proteins with antibodies after separation by electrophoresis.

In data set [3] the target is T1, ATX (Homo sapiens, UniProt Q96Q15). Description: Immune complex kinase assay, immunoprecipitated HA-ATXWT pretreated with drug, GST-p53 1-70 phosphorylation. The data set is classed as biochemical. Also noted: was used to isolate a full-length cDNA encoding a novel member of the PIKK family, termed ATX; made in house. To be noted: pretreatment of immunoprecipitated HA-ATXWT; GST-p53 1-70 substrate; read-out: drug concentration required for 50% inhibition (IC50) of ATX activity in vitro. As for the experimental part: With the exception of the TOR proteins, the PIKK family members that bear functional catalytic domains phosphorylate substrates bearing the Ser/Thr-Gln motif (Tibbetts and Abraham, supra, 2000). […] Detergent extracts from the transfected cell populations were immunoprecipitated with α-HA antibody, and protein kinase assays were performed in buffer containing Mn2+, [γ-32P]ATP, and a GST fusion protein containing the first 70 amino acids of p53 (GST-p531-70) as the substrate (FIG. 1C). The GST-p531-70 protein was previously identified as a substrate for ATM and ATR in immune complex kinase assays (Tibbetts et al., Genes and Development 13:152-157 (1999)). […] Based on the ratios of 32P incorporation into substrate to levels of HA-tagged protein kinase, it can be estimated that the specific kinase activity of ATXWT was approximately 3.5-fold higher than that of ATMWT. As observed with ATM as the test kinase (Banin et al., Science 281:1674-1677 (1998); Canman et al., Science 281:1677-1679 (1998); Tibbetts et al., supra, 1999), phosphorylation of GST-p531-70 by ATXWT was nearly abolished by substitution of the Ser-15 residue in p53 with Ala (FIG. 1C, right panel). […] In contrast to the amino-terminal fragment, of p53, the PHAS-I/4E-BP1 protein, which is the prototypical substrate for mTOR, was poorly phosphorylated by HA-ATXWT in immune complex kinase assays (data not shown). […]

Data set [4] addresses T1, ATX. In words: ATX kinase activity after drug treatment of intact U2OS cells, immunoprecipitation of endogenous ATX. The data set is classed as cell-based. Also noted: immunoprecipitation of endogenous ATX with α-ATX Ab-2; endogenous in cells; host or cells: U2OS osteosarcoma cells. To be noted: U2OS cells pretreated for 30 min, endogenous ATX immunoprecipitated with α-ATX Ab-2. The text has this: The protein kinase activities of the mammalian PIKKs characteristically display a strong dependence on Mn2+ as a cofactor for the phosphotransferase reaction, and variable sensitivity to inhibition by wortmannin (Abraham, Genes and Development 15:2177-2196 (2001)). In our studies, the protein kinase activity of ATX was also dependent on the addition of Mn2+ the kinase reaction buffer (data not shown). […] Wortmannin is an irreversible inhibitor of PIKKs (Walker et al., Molecular Cells 6:909-919 (2000)) and can be used to assess the potency of this drug as an ATX inhibitor in intact cells. To this end, U2OS osteosarcoma cells were pretreated for 30 min with the indicated concentrations of wortmannin, followed by the preparation of cellular extracts for immunoprecipitation of endogenous ATX with α-ATX Ab-2. […]
For subcellular fractionations, U2OS cells were resuspended in cold homogenization buffer (25 mM Hepes, pH 7.4, 250 mM sucrose, 1 mM EGTA, 5 mM MgCl2, 50 mM NaF, 1 mM DTT, plus protease inhibitors) and Dounce homogenized on ice with 40 strokes in a Tefloncoated homogenizer. […] After separation by SDS-PAGE, the proteins were detected by autoradiography (for kinase reaction products) or by immunoblotting. Proteins immunoblotted with rabbit and mouse antibodies were detected with protein A-horseradish peroxidase (HRP) (Amersham), and sheep anti-mouse IgG-HRP (Amersham), respectively. […]
Target sequence in this assay (Q96Q15 whole entry, the tested form may be a part): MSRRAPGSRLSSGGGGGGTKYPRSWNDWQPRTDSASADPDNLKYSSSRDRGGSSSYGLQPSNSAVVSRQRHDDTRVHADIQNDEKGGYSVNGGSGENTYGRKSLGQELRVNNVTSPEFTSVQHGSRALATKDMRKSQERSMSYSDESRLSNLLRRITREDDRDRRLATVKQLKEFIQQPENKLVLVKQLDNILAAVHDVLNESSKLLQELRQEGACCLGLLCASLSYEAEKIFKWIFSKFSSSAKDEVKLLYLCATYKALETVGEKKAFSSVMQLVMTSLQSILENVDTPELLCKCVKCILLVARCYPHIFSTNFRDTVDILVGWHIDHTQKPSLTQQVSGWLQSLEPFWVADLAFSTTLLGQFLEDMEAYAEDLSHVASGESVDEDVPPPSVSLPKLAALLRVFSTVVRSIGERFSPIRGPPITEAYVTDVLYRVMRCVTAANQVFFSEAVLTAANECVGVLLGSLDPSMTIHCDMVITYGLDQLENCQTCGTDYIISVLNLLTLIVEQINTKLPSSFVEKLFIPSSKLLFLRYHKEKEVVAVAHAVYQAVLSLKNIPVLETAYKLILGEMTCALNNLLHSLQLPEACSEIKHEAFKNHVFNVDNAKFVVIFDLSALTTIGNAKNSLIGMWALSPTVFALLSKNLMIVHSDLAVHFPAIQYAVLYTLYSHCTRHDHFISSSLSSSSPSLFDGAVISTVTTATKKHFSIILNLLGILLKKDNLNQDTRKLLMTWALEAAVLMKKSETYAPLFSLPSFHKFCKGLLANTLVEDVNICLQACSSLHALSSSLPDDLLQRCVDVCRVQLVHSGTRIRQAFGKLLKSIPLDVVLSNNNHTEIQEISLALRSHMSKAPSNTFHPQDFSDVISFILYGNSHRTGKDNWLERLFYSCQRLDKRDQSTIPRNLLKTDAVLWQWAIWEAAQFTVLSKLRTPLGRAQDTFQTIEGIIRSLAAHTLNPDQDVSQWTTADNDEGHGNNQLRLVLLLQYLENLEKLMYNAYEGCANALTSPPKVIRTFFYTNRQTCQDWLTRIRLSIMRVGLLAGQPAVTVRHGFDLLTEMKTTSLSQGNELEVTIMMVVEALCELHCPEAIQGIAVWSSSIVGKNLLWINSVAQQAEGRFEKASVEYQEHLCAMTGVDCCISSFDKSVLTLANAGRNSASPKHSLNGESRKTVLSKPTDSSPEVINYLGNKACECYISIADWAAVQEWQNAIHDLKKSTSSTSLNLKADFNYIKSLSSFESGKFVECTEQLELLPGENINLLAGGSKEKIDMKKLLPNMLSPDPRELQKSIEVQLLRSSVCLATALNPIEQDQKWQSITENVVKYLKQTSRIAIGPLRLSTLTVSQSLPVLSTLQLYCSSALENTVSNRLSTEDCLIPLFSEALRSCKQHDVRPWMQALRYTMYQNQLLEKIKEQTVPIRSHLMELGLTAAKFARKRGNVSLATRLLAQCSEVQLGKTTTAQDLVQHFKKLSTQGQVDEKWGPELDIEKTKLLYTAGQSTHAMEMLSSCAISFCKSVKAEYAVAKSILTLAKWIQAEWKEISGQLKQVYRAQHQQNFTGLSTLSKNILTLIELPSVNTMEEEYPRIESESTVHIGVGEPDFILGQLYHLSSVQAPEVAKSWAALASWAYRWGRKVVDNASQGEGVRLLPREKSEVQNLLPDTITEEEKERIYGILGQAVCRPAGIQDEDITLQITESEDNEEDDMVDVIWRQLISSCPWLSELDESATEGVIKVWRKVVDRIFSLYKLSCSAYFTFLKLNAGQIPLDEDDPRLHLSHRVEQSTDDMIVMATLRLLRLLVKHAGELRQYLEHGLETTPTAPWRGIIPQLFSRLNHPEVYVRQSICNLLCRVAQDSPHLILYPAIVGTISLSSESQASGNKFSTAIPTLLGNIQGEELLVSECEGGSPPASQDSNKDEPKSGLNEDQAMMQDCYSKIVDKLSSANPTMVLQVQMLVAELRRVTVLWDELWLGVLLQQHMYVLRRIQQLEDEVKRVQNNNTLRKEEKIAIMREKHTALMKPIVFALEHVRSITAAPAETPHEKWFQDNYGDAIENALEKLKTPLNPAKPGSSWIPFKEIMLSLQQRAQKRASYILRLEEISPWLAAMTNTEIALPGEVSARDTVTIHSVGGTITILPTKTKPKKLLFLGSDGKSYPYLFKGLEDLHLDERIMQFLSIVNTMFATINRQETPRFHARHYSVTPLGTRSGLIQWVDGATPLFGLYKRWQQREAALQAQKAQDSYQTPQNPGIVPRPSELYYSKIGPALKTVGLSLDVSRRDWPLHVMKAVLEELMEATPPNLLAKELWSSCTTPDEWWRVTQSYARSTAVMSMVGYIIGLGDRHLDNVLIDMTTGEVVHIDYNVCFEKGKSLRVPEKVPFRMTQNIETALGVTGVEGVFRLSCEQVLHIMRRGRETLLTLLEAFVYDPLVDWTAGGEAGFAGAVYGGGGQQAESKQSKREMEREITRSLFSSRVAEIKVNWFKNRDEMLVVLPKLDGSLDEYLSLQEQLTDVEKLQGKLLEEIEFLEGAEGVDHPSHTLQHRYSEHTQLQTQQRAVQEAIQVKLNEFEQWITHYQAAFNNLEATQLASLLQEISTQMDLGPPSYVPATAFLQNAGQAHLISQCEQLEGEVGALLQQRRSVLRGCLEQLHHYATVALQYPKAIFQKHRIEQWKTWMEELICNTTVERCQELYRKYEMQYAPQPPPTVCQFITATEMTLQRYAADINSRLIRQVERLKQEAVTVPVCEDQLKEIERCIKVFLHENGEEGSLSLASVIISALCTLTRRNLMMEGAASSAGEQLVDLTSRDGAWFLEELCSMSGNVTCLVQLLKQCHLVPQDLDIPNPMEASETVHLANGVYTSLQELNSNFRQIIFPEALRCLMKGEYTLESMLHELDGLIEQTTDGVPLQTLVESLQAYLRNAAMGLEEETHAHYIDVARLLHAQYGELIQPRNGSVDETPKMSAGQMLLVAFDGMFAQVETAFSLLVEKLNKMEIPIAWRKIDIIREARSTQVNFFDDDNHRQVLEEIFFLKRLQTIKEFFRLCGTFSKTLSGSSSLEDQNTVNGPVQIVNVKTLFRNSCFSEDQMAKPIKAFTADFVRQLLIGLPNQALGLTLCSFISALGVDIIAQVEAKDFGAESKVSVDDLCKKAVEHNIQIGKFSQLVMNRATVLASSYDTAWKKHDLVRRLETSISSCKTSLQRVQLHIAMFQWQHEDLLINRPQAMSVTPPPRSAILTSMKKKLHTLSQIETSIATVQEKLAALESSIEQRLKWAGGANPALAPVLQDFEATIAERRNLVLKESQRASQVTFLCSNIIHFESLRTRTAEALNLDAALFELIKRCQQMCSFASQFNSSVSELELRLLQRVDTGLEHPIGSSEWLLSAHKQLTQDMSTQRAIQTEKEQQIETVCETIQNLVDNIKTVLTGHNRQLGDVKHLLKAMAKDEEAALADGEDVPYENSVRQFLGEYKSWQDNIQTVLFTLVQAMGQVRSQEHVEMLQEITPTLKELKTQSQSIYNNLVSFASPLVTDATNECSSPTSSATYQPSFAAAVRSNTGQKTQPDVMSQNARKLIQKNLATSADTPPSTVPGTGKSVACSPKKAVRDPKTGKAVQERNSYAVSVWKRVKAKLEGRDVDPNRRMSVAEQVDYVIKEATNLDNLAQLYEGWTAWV

Consider “5′-GAGACAGGAGGGAGCTTGCT-3′ (all phosphorothioate, sugars by position and methylation of C not given here) [S oligonucleotide, reference compound]”, for which, in the data set on U2OS cells [1], the “decrease of basal level of colony outgrowth (basal clonogenic activity)” value is recorded as 25%. The “cell-cycle distribution after IR exposure” value in the data set with U2OS cells [2] was “accumulated in both G1 and G2/M phases and were cleared out of S phase”.
In the case of `O=c1[nH]cc(F)c(=O)[nH]1` [5-FU, 5-fluorouracil, reference compound], in the data set on p53, the “Ser-15 phosphorylation of p53” value was “not accompanied by an increase in Ser-15 phosphorylation” and the p53 expression entry was “increased p53 expression to levels similar to those observed in UV-irradiated cells”.
Regarding `COC[C@H]1OC(=O)c2coc3c2[C@@]1(C)C1=C(C3=O)[C@@H]2CCC(=O)[C@@]2(C)C[C@H]1OC(C)=O` [wortmannin], the figures for the IC50 on ATX [3] and on ATX [4] were 10 to 100 nM and 1000 to 3000 nM, respectively.
